From US20200010479A1, “INHIBITORS OF MICROBIAL BETA-GLUCURONIDASE ENZYMES AND USES THEREOF” (THE UNIVERSITY OF NORTH CAROLINA AT CHAPEL HILL, priority 2017, published 2020)

Assays:
[1] = therapeutically-relevant doses; cited from earlier work
SUM149 cells [2] = assay: SUM149 triple negative breast cancer xenograft in athymic nude mice
gut microbial enzymes = assay: SN-38-G reactivation in fimo samples after treatment of FVB mice; format: in vivo
Experimental: The FVB mice were treated with irinotecan, the Inh9, or both irinotecan and Inh9, and it was determined how these treatments affected SN-38-G reactivation in fimo samples collected after 24 hours. […] A similar study was conducted in which samples were collected at 120 hours; at this five-day timepoint, no difference was found between the four treatment groups (data not shown).

SUM149 cells [3] = conditions: athymic nude, mouse, in vivo, 5 days
C3-Tag mammary tumors [4] = conditions: mouse, in vivo
[5] = tested on: gut microbial GUS enzymes; conditions: irinotecan alone; cited from earlier work
gut microbiota [6] = assay: Gut microbiota composition in C3Tag GEMM animals; format: in vivo, C3Tag GEMM mice
Description: Finally, we examined the effects of irinotecan and GUS inhibitor on the composition of the gut microbiota in […] triple-negative breast cancer GEMM animals. […] While the vehicle and Inh9 treatment groups appeared similar by PCoA1 analysis, both the irinotecan and IRI+Inh9 groups were similar to each other and distinct from the non-irinotecan mice (FIG. 22C). However, unlike the xenograft mice, irinotecan induces much smaller changes in the composition of the gut microbiota in these GEMM animals. […] These changes were not as dramatic as those observed with the athymic Sum149 xenograft mice presented above. […] In these GEMM animals, though, no change in Enterobacteriaceae or other Gammaproteobacteria families was observed; thus, the taxa that drive the increases in Proteobacteria are not known in these immune-competent mice.

[7] = tested on: murine intestinal epithelium; assay: Time-course of gut damage after a single treatment in FVB mice; format: in vivo, female FVB mice
Experimental: It has been previously reported that irinotecan induces apoptosis and reduces the number of mitotic structures in the rat intestinal epithelium (Takasuna 1996). To assess whether Inh9 impacts cell proliferation in the murine intestinal epithelium, we undertook two time-course studies. Four groups of age-, weight- and litter-matched female FVB mice were treated with a single treatment of vehicle, Inh9 (1 mg/kg p.o.), irinotecan (50 mg/kg i.p.) or irinotecan and Inh9. One set of animals were euthanized after 24 hours, and a second set after 120 hours. To assess overall effects on the animals, changes in body weight, spleen mass and hematocrit were measured. In the GI tract, levels of apoptotic cells and proliferative cells were measured and epithelial samples were examined by H&E staining.
Thus, at five days, Inh9 appears to protect this measure of animal health. […] As such, the protection afforded at 24 hours by Inh9 is sufficient to improve subsequent gut epithelial outcomes in mice several days after administration.

gut microbiota [8] = assay: 16S rRNA metataxonomic analysis of luminal contents, athymic Sum149 xenograft mice; format: in vivo
Experimental: A metataxonomic analysis was performed of the luminal contents of athymic mice bearing Sum149 triple-negative breast cancer xenograft tumors by sequencing the V3-V4 region of the bacterial 16s rRNA gene. […] Gut microbial diversity is associated with animal and human health, while reduced diversity is associated with disease in both model organisms and humans (REFs). Thus, Inh9 blunts the negative effects of irinotecan on gut microbial diversity in athymic tumor xenograft mice, and is capable of increases species richness in these animals.
At the phylum level, the lumenal contents of vehicle-treated mice contained 50% Bacteroidetes, 42% Firmicutes, and 4% Proteobacteria (FIG. 22B). […] Thus, in immune-deficient mice, Inh9 markedly protects gut microbial composition in athymic mice, increasing diversity and reducing irinotecan-induced increases in Proteobacteria.

C3-Tag mammary tumors [9] = assay: C3-Tag genetically engineered mouse model (GEMM) of triple-negative breast cancer

For CCc1c2c(nc3ccc(OC(=O)N4CCC(N5CCCCC5)CC4)cc13)-c1cc3c(c(=O)n1C2)COC(=O)[C@]3(O)CC [irinotecan, (S)-4,11-diethyl-3,4,12,14-tetrahydro-4-hydroxy-3,14-dioxo1H-pyrano[3′,4′:6,7]-indolizino[1,2-b]quinolin-9-yl-[1,4′bipiperidine]-1′-carboxylate, reference compound], the “patients who develop diarrhea of all grades” value [1] is given as 88%, the “patients with life-threatening grade 3-4 diarrhea” value [1] is given as 30% and the “time to early-onset diarrhea” value (SUM149 cells [2]; both irinotecan treatment groups) is given as ≤ 12 h. The “time until the entire cohort required euthanasia” value (SUM149 cells [2]; irinotecan alone, following the first treatment) was 10 days, the “post-sacrifice colon histological examination” value (SUM149 cells [2]; single agent) was “dramatic irinotecan-induced epithelial damage” and the terminal tumor masses (SUM149 cells [2]; single agent) was “significantly reduced”. For the same compound, the “effects on SN-38-G reactivation by in fimo samples” value (gut microbial enzymes; samples collected at 120 hours) was “no longer detected”, the “SN-38-G processing activity in the mouse cecum (in fimo samples)” value (gut microbial enzymes; single agent, samples collected after 24 hours) was “significantly increased” and the “mice that developed late-onset, delayed diarrhea” value (SUM149 cells [3]) was 50%. The “time within which all animals developed diarrhea” value (C3-Tag mammary tumors [4]; female, C3-Tag (strain of origin FVB/N)) was ≤ 14 days, the “body weight over the course of the study” value (C3-Tag mammary tumors [4]) was “consistently lost weight” and the “colon tissue, H&E staining” value (C3-Tag mammary tumors [4]) was “almost completely destroyed glandular structure”. The “time to lethal intestinal toxicity” value [5] was ≤ 10 days, the “Proteobacteria and Gammaproteobacteria, Verrucomicrobia and Verrocumicrobiae levels” value (gut microbiota [6]; irinotecan alone or in combination with GUS inhibitor vs no irinotecan) was “significant increases” and the “composition of the gut microbiota” value (gut microbiota [6]; mice with intact immune system) was “sole driver of changes”. For the same compound, the “time to apoptotic crypt damage in the murine small intestine” value ([7]; irinotecan) was ≤ 24 h, the spleen mass ([7]; single IRI injection, five days) was “unchanged” and the body mass ([7]; single IRI injection, over five days) was “modest body mass reduction”. The “proliferative (BrdU+) cells per crypt in ileum, proximal colon and distal colon” value ([7]; single agent compared to vehicle or Inh9, 120 hours) was “significantly decreased”, the “increase in the levels of Proteobacteria” value (gut microbiota [8]; irinotecan, athymic xenograft mice) was “ten-fold increase” and the “Bacteroidetes in lumenal contents, phylum level” value (gut microbiota [8]; single agent) was 35%. For the same compound, the “Firmicutes in lumenal contents, phylum level” value (gut microbiota [8]; single agent) was 16%, the “Proteobacteria in lumenal contents, phylum level” value (gut microbiota [8]; single agent) was 46% and the “species diversity, Chao1 richness” value (gut microbiota [8]; single agent) was “significant drop”. For the same compound, the “number of tumors observed in the animals” value (C3-Tag mammary tumors [9]; between treatment groups) was “did not differ”, the “time until euthanasia was required for all animals” value (C3-Tag mammary tumors [9]; irinotecan alone, after the initiation of therapy) was 28 days and the “primary tumor as share of body weight” value (C3-Tag mammary tumors [9]; single agent) was 3%. The “primary tumor mass upon sacrifice” value (C3-Tag mammary tumors [9]; single agent) was ~1 g.
